# According to PMC7985297 (Communications Biology, 2021):
# Several values for one entry are separate records, joined by “and”; a condition that tells them apart may be missing. Equal entries are not always repeated.
# Experiments:
# [1] = biological target: T1, recombinant human Pin1 protein (Homo sapiens, UniProt Q13526); test: Pin1 inhibition assay (fluorometric isomerase activity); assay type: biochemical; conditions: compounds 0–50 µM, 500 ng Pin1, Supplementary Fig. 2
# T1 construct: purchased Abcam ab51230
# Procedure: The effect of inhibitors on Pin1 isomerase activity was evaluated using a fluorometric Pin1 Assay Kit (AnaSpec, Fremont, California), according to the manufacturer’s protocol. […] Fluorescence intensity was measured with excitation wavelength at 490 nm and emission wavelength at 520 nm on an Infinite M1000 plate reader (Tecan, Männedorf, Switzerland) at 37 °C. Measurements were recorded every 5 min for up to 1 h.
# Fluorescent polarization-based assay
# the isomerase activity of Pin1. Each reaction contains 500 ng of
# recombinant human Pin1 protein incubated with an inhibitor and a
# fluorogenic substrate at 37°C. The uncatalyzed reaction represents
# the intrinsic cis/trans isomerization of the substrate without Pin1
# separate experiments with the correlation performed in duplicate
# wells. RFU, relative fluorescent units.
# (1 picture or pasted object on this page, not shown here)
# [2] = test system: Pin1 and cell cycle proteins in LN95 cells; test: Western blot of Pin1 and cell cycle proteins in LN95 cells; conditions: for CyclinA2 protein level (Fig. 6a) / CyclinB1 protein level (Fig. 6a) / CyclinD1 protein level (Fig. 6a) / Pin1 protein level (Fig. 6a) / p21 protein level (Fig. 6a) / p27 protein level (Fig. 6a): relative to 0 μM = 1, replicate experiments by date
# Procedure: Data shown are the means ± s.e.m. from 3–4 independent experiments. Statistical significance was determined by ANOVA using the Dunnett’s multiple comparisons test. *P < 0.05, **P < 0.01, ***P < 0.001.
# For western blot analyses, membranes were blocked with 5% non-fat milk in phosphate-buffered saline containing 0.1% Tween-20 (PBS-T) and then incubated overnight at 4 °C with primary antibody (1:200–5000) in PBS-T containing 5% non-fat milk or 2% BSA. After incubation with the primary antibody, the membrane was washed three times with TBS-T, incubated with a horseradish peroxidase-conjugated antibody secondary antibody (1:5000–10,000) for 1–2 h at room temperature, and washed three times with PBS-T and two more times with PBS before chemiluminescence was detected with ECL Prime Reagent (GE Healthcare Life Science, Mississauga, ON). Western blot images were captured using the ChemiDoc MP Imaging System (Bio-Rad Laboratories, Hercules, CA) and quantified using ImageJ software.
# [3] = test system: Ki-67, PSA and AR in LN95-D3 xenografts; test: Immunohistochemistry of LN95-D3 xenografts (Ki-67, PSA, AR); assay type: in vivo, mice
# Excerpt: Fig. 8 Immunohistochemistry of LN95-D3 xenografts. a Representative images showing the histomorphology and expression of Ki-67, PSA, and AR from harvested tumors. Scale bars represent 100 µm. Statistical analysis for b the percentage of Ki-67-positive tumor cells and for the expression of c PSA and d AR. Error bars represent the mean ± s.d.
# Sections were cut from formalin-fixed, paraffin-embedded tumor tissue at a thickness of 5 µm, deparaffinized in xylene, and then rehydrated in alcohols and distilled water. Endogenous peroxidase was blocked by incubating with a 3% hydrogen peroxide solution for 5 min. […] PSA was detected using a monoclonal mouse anti-human PSA antibody concentrate (ER-PR8; Dako). A negative control without the primary antibody was included for each sample on the same slide. Antigen was detected with 3,3-diaminobenzidine (DAB) and hematoxylin was used for counterstaining. Images were captured on an Axio Imager M2 microscope (Zeiss) at ×200 magnification. The percentage of Ki-67-positive cells was determined with ImageJ using the Cell Counter plugin. At least 1000 cells were scored from three images of representative tumors for each treatment group. The intensity of DAB staining for PSA was quantified by ImageJ using color deconvolution and measuring the mean gray value for the DAB image, where optical density = log(max intensity/mean intensity), and a max intensity of 255 for an 8-bit image.
# [4] = biological target: T2, full-length AR (Homo sapiens, UniProt P10275, T878A); test: PSA(6.1 kb)-luciferase AR-driven reporter assay in LNCaP cells; assay type: cell-based; conditions: for PSA(6.1 kb)-luciferase activity normalized to fold-induction by R1881 (=100): without or with ATRA 5uM; for fractional response (Fig. 5h): monotherapy or with 5 µM ATRA
# T2 construct: Transcriptional activity of full-length AR was assessed in LNCaP cells; endogenous in cells; host or cells: LNCaP
# T2 sequence (P10275 1-920 T878A): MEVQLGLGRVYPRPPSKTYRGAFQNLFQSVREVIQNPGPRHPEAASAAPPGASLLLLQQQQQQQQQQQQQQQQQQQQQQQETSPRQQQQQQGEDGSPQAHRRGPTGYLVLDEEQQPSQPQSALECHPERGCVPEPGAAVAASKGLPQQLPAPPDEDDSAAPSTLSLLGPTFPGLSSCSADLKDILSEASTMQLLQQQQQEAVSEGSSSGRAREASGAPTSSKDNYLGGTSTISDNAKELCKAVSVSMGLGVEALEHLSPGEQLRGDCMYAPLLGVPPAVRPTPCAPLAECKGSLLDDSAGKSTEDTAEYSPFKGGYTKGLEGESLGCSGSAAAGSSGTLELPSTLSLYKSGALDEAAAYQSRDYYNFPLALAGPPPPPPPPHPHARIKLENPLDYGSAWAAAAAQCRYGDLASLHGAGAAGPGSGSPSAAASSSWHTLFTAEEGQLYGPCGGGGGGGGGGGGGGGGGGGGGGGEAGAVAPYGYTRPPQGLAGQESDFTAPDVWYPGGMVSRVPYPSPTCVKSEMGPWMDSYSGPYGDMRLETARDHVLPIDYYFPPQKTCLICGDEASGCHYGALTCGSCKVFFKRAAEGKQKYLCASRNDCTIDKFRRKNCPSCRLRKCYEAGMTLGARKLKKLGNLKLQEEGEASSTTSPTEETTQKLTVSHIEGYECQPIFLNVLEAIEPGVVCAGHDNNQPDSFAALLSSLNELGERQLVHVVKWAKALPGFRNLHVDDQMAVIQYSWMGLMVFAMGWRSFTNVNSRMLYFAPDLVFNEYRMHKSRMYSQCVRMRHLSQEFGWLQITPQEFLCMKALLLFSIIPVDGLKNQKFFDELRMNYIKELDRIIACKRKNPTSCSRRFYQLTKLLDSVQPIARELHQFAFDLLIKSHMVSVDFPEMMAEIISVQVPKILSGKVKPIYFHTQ
# [5] = test system: Pin1, Cyclin D1, Skp2 and AR in LN95-D3 tumors; test: Western blot of harvested LN95-D3 xenograft tumors (Pin1, Cyclin D1, Skp2, AR); assay type: in vivo, mice; conditions: LN95-D3 tumors at end of study
# Procedure: Scale bars represent 5 mm (f) western blot analysis showing the expression of Pin1, Cyclin D1, Skp2, and AR from representative tumors. Quantification of the data is shown for g Pin1 and h Skp2, where the error bars represent the mean ± s.e.m.
# All experiments involving animals conform to the relevant regulatory and ethical standards and were approved by the University of British Columbia Animal Care Committee (A18-0077). Metacam (1 mg/kg, 0.05 mL/10 g of body weight) was administered subcutaneously prior to any surgery. Animals were anesthetized with isoflurane and euthanized by CO2. Six–eight-week-old male (NOD-scid IL2Rgamma^null) mice were maintained in the Animal Care Facility at the British Columbia Cancer Research Centre. Mice were castrated 2 weeks before they were subcutaneously inoculated in the right flank with two million LN95-D3 cells in a 1:1 volume of matrigel (Corning Discovery Labware, Corning, NY). […] Tumors were excised 1 day after the last dose and prepared for western blot analysis and immunohistochemistry.
# [6] = test system: LN95-D3 xenografts; test: Growth of LN95-D3 CRPC xenografts in castrated male NSG mice; assay type: in vivo; conditions: castrated mice, ATRA 5 mg 21-day release pellet, EPI-7170 30 mg/kg daily oral, relative to vehicle/placebo-control
# [7] = test system: androgen-regulated genes (KLK3/PSA, TMPRSS2, NKX3.1, FKBP5); test: Quantitative real-time PCR of androgen-regulated genes in LNCaP cells; assay type: cell-based, human; conditions: enzalutamide 5 μM, juglone 20 μM, R1881 1 nM, 48 hours
# [8] = test system: LN95-D3 cells; test: Cell cycle analysis by flow cytometry, LN95-D3 subline; assay type: cell-based, human; conditions: LN95-D3, absence of androgen, 48 h
# T1 sequence (Q13526 whole entry): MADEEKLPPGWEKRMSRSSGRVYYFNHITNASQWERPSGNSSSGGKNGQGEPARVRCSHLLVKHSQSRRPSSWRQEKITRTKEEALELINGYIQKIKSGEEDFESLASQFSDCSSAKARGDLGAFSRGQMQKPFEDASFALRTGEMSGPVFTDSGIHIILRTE
smiles,measurement,setting,value
"CC1=C(/C=C/C(C)=C/C=C/C(C)=C\C(=O)O)C(C)(C)CCC1 [13cisRA, 13-cis-retinoic acid]",effect on isomerase activity of Pin1,[1],did not inhibit the isomerase activity of Pin1
same,CyclinA2 protein level (Fig. 6a),[2]; 1 μM,1.4 and 0.72 and 1.11
same,CyclinB1 protein level (Fig. 6a),[2]; 1 μM,1.01 and 0.65 and 1.18
same,CyclinD1 protein level (Fig. 6a),[2]; 1 μM,0.66 and 0.89 and 1.34 and 0.47
same,Pin1 protein level (Fig. 6a),[2]; 1 μM,1.03 and 1.11 and 1.06 and 0.77
same,p21 protein level (Fig. 6a),[2]; 1 μM,1.11 and 0.58 and 0.74
same,p27 protein level (Fig. 6a),[2]; 1 μM,1.11 and 0.36 and 0.65
same,CyclinA2 protein level (Fig. 6a),[2]; 5 μM,1.68 and 0.83 and 0.8
same,CyclinB1 protein level (Fig. 6a),[2]; 5 μM,1.11 and 0.76 and 0.82
same,CyclinD1 protein level (Fig. 6a),[2]; 5 μM,0.7 and 1.29 and 1.73 and 0.85
same,Pin1 protein level (Fig. 6a),[2]; 5 μM,0.96 and 1.44 (2×) and 0.77
same,p21 protein level (Fig. 6a),[2]; 5 μM,0.92 and 0.24 and 0.67
same,p27 protein level (Fig. 6a),[2]; 5 μM,0.91 and 0.32 and 0.6
same,CyclinA2 protein level (Fig. 6a),[2]; 10 μM,1.29 and 0.49 and 1.45
same,CyclinB1 protein level (Fig. 6a),[2]; 10 μM,1.06 and 0.77 and 1.15
same,CyclinD1 protein level (Fig. 6a),[2]; 10 μM,0.54 and 1.01 and 0.27 and 0.84
same,Pin1 protein level (Fig. 6a),[2]; 10 μM,0.95 and 0.71 and 1.33 and 1.23
same,p21 protein level (Fig. 6a),[2]; 10 μM,0.89 and 0.39 and 1.12
same,p27 protein level (Fig. 6a),[2]; 10 μM,1.06 and 0.44 and 1.1
same,effect on cellular Pin1 protein levels,"[2]; LN95, 0–10 µM",did not impact the cellular levels of Pin1
CC(C)(c1ccc(OC[C@H](O)CNS(C)(=O)=O)cc1)c1cc(Cl)c(OC[C@H](O)CCl)c(Cl)c1 [EPI-7170],effect on number of Ki-67-positive tumor cells,[3]; LN95-D3 xenografts,decreased the number of Ki-67-positive tumor cells in xenografts
same,levels of AR protein in xenografts (IHC),[3]; LN95-D3 xenografts,similar
same,"expression of AR, DAB staining (Fig. 8d)","[3]; LN95-D3 xenografts, ATRA 5 mg pellet, EPI-7170 30 mg/kg/d, listed as EPI placebo",0.086 and 0.114 and 0.139 and 0.128 and 0.109 and 0.1 and 0.132 and 0.137
same,percentage of Ki-67-positive tumor cells (Fig. 8b),"[3]; LN95-D3 xenografts, ATRA 5 mg pellet, EPI-7170 30 mg/kg/d, one value per tumor, listed as EPI placebo",19.68% and 14.7% and 15.02%
same,effect on PSA expression in xenografts (IHC),[3]; compared to the control,decreased
same,inhibition of reporter activity at highest concentration,[4]; 4 µM of EPI-7170,~ 98%
same,"mean combination index (CI) with ATRA, PSA(6.1 kb)-luciferase","[4]; ATRA 5 μM, Bliss independence model, highest concentrations excluded",0.91
same,PSA(6.1 kb)-luciferase activity normalized to fold-induction by R1881 (=100),[4]; EPI-7170 0.2 μM,77.0788 and 79.4022 and 93.7923 and 73.47
same,PSA(6.1 kb)-luciferase activity normalized to fold-induction by R1881 (=100),[4]; EPI-7170 0.5 μM,56.3224 and 79.2412 and 61.2392 and 64.29
same,fractional response (Fig. 5h),[4]; EPI-7170 2 μM,0.8636 and 0.6689 and 0.7916 and 0.8858
same,fractional response (Fig. 5h),[4]; EPI-7170 4 μM,0.9949 and 0.9737 and 0.993 and 0.9732
same,IC50,"[4]; LNCaP, androgen-induced (R1881), 24 h, without ATRA, read-out: IC50 for PSA(6.1 kb) luciferase, monotherapy",740 ± 1120 nM
same,tumor levels of Skp2,[5],reduced
same,tumor growth after 21 days of treatment,[6],significantly reduced
CNC(=O)c1ccc(N2C(=S)N(c3ccc(C#N)c(C(F)(F)F)c3)C(=O)C2(C)C)cc1F [enzalutamide],effect on androgen-induced FKBP5 transcript,[7],efficiently blocked
same,effect on cell cycle distribution,[8],had no effect on the cell cycle distribution
